Source: ChEMBL document CHEMBL5042554, “Discovery of Pyridone-Substituted Triazolopyrimidine Dual A2A/A1 AR Antagonists for the Treatment of Ischemic Stroke” (ACS Med Chem Lett, 2022)

Legend:
Adenosine receptor A1 [1] = target: T1, Adenosine receptor A1 (Homo sapiens, UniProt P30542); experiment: Displacement of [3H] DPCPX from human recombinant A1 adenosine receptor expressed in CHO cells incubated for 60 mins by radioligand binding competition assay; assay type: cell-based
T1 sequence (P30542 whole entry): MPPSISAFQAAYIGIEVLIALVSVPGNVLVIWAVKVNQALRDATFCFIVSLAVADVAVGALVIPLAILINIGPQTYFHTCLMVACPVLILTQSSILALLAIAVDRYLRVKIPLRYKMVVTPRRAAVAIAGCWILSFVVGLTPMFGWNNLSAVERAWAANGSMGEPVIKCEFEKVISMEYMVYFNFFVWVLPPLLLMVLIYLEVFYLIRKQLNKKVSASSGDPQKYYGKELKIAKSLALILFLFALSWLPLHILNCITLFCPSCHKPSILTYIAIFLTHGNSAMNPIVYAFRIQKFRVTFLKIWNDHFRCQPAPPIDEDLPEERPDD

Adenosine receptor A2a [2] = target: T2, Adenosine receptor A2a (Homo sapiens, UniProt P29274); experiment: Displacement of [3H] ZM241385 from human recombinant A2A adenosine receptor expressed in HeLa cells incubated for 30 mins by radioligand binding competition assay; assay type: cell-based
Adenosine receptor A2b = target: T3, Adenosine receptor A2b (Homo sapiens, UniProt P29275); experiment: Displacement of [3H] DPCPX from human recombinant A2B adenosine receptor expressed in HEK293 cells incubated for 30 mins by radioligand binding competition assay; assay type: cell-based
T3 sequence (P29275 whole entry): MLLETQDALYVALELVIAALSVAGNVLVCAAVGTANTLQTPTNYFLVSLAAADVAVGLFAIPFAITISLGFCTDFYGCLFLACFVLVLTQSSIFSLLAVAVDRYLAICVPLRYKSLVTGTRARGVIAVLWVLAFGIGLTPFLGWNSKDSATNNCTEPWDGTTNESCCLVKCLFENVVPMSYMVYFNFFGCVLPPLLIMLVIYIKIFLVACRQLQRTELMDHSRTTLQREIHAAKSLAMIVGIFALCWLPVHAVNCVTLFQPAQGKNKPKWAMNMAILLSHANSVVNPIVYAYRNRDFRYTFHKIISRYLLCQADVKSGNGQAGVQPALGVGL

Adenosine receptor A3 = target: T4, Adenosine receptor A3 (Homo sapiens, UniProt P0DMS8); experiment: Displacement of [3H] NECA from human recombinant A3 receptor expressed in HeLa cells incubated for 180 mins by radioligand binding competition assay; assay type: cell-based
T4 sequence (P0DMS8 whole entry): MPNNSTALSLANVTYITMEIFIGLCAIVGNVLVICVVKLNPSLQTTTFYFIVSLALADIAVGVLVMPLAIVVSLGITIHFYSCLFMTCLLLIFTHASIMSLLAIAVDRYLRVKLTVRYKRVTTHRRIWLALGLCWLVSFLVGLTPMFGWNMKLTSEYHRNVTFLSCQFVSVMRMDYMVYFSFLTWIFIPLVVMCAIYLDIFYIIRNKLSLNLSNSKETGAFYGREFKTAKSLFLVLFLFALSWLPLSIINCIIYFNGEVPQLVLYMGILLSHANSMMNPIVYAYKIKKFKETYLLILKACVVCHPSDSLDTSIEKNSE

Adenosine receptor A1 [3] = target: T1, Adenosine receptor A1; experiment: Antagonist activity at human recombinant adenosine A1 receptor transfected in HEK293 cells co-transfected with Galpha15/16 assessed as intracellular calcium change incubated for 10 mins by microplate reader method; assay type: functional, cell-based
Adenosine receptor A2a [4] = target: T2, Adenosine receptor A2a; experiment: Antagonist activity at human recombinant adenosine A2A receptor transfected in HEK293 cells co-transfected with Galpha15/16 assessed as intracellular calcium change incubated for 10 mins by microplate reader method; assay type: functional, cell-based

T2 sequence (P29274 whole entry): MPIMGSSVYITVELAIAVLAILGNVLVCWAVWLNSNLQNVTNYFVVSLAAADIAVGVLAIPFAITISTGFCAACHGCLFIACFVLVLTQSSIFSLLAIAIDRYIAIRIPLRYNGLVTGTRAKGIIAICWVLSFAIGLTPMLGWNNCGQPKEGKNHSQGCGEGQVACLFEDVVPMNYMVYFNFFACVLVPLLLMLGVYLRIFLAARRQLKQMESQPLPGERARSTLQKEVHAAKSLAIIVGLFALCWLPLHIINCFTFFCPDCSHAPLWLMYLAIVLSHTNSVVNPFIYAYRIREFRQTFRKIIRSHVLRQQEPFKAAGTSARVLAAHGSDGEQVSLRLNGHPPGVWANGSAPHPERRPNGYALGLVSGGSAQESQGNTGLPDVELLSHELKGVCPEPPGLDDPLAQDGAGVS

Row | SMILES | Ki (Adenosine receptor A1 [1]) [nM] | Ki (Adenosine receptor A2a [2]) [nM] | Ki (Adenosine receptor A2b) [nM] | Ki (Adenosine receptor A3) [nM] | IC50 (Adenosine receptor A1 [3]) [nM] | IC50 (Adenosine receptor A2a [4]) [nM]
1 | Cn1cc(-c2cnc(N)n3nc(-c4nccs4)nc23)ccc1=O | 78 | 84.6 | 1590 | > 10000 | – | –
2 | Cn1cc(-c2cnc(N)n3nc(-c4ccccn4)nc23)ccc1=O | 37.6 | 62.4 | > 10000 | > 10000 | – | –
3 | Cn1nccc1-c1nc2c(-c3ccc(=O)n(C)c3)cnc(N)n2n1 | 2970 | 797 | > 10000 | > 10000 | – | –
4 | Cc1csc(-c2nc3c(-c4ccc(=O)n(C)c4)cnc(N)n3n2)n1 | 926 | 1030 | > 10000 | > 10000 | – | –
5 | Cn1cc(-c2cnc(N)n3nc(-c4ccco4)nc23)ccc1=O | 24.2 | 5.58 | 491 | – | 25.9 | 5.72
6 | Cc1ccc(-c2nc3c(-c4ccc(=O)n(C)c4)cnc(N)n3n2)o1 | 88.4 | 448 | > 10000 | 2960 | – | –
7 | Cn1cc(-c2cnc(N)nc2-c2ccco2)ccc1=O | 88.6 | 26.9 | 58.9 | > 10000 | – | –
8 | Cc1cnc(-c2nc3c(-c4ccc(=O)n(C)c4)cnc(N)n3n2)s1 | 21.9 | 43.9 | 9920 | 2930 | – | –
9 | Cn1ccc(-c2nc3c(-c4ccc(=O)n(C)c4)cnc(N)n3n2)n1 | 722 | 3430 | > 10000 | > 10000 | – | –
10 | Cc1cccc(-c2nc3c(-c4ccc(=O)n(C)c4)cnc(N)n3n2)n1 | 1720 | 3770 | > 10000 | > 10000 | – | –
